Test results from patent US20220213074A1, “ABHD12 INHIBITORS AND METHODS OF MAKING AND USING SAME” (H. Lundbeck A/S, priority 2019, published 2022).
pIC50: −log10 of the molar value.

Target: T1, ABHD12 (Mus musculus, UniProt Q99LR1)
T1 construct: from tissue; host or cells: mouse brain (membrane fraction)
T1 sequence (Q99LR1 1-398): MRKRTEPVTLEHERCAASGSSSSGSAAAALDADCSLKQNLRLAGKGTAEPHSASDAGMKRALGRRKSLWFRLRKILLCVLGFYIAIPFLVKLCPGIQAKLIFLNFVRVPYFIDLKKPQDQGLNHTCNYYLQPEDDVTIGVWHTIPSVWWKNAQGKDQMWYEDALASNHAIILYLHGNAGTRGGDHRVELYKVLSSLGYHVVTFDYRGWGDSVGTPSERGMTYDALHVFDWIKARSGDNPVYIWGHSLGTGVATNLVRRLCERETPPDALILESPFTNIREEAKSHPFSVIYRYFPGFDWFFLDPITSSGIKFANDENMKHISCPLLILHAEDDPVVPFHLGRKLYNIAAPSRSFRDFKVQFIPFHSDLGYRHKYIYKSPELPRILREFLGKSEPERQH
Assay: In vitro competitive activity-based protein profiling (FP-Rhodamine probe, gel-based) in mouse brain membrane proteomes
Format: biochemical
Settings: mouse brain membrane proteome, 30 min preincubation at 37° C.; for inhibition at 10 µM: 10 μM inhibitor (stated in cell); for inhibition at 1 µM: 1 μM inhibitor; for inhibition at 50 µM: 50 μM inhibitor (stated in cell)
Protocol: Compounds were tested to assess their ABHD12 activity using the following assay.
Mouse brain membrane proteomes (50 μL, 1.0 mg/mL total protein concentration) were preincubated with varying concentrations of inhibitors at 37° C. After 30 min, FP-Rhodamine probe (1.0 μL, 50 μM in DMSO) was added and the mixture was incubated for 30 min at room temperature. Reactions were quenched with SDS loading buffer (15 μL-4×) and proteins were resolved by SDS-PAGE gel (10% acrylamide). Following in-gel fluorescence imaging, enzyme activity was determined by measuring intensity of gel bands corresponding to ABHD12 using ImageJ software.

SMILES	inhibition at 1 µM	pIC50	further results
O=C(Nc1cccnc1)NC1CCN(c2cccc(C(F)(F)F)n2)CC1 [Example 1, 1-(Pyridin-3-yl)-3-(1-(6-(trifluoromethyl)pyridin-2-yl)piperidin-4-yl)urea]			inhibition at 10 µM: 50 to 75%
CC(=O)c1ccc(N2CCC(NC(=O)Nc3cccnc3)CC2)nc1 [Example 3, 1-(1-(5-Acetylpyridin-2-yl)piperidin-4-yl)-3-(pyridin-3-yl)urea]	0 to 25%		
O=C(Nc1cccnc1)NC1CCN(c2cc(-c3ccc(OC(F)(F)F)cc3)ccn2)CC1 [Example 4, 1-(Pyridin-3-yl)-3-(1-(4-(4-(trifluoromethoxy)phenyl)pyridin-2-yl)piperidin-4-yl)urea]	25 to 50%		
C#Cc1ccc(Oc2ccnc(N3CCC(NC(=O)Nc4cccnc4)CC3)c2Cl)c(Cl)c1 [Example 6, 1-(1-(3-Chloro-4-(2-chloro-4-ethynylphenoxy)pyridin-2-yl)piperidin-4-yl)-3-(pyridin-3-yl)urea]	≥ 75%	6.00 to 7.00	
O=C(Nc1cccnc1)NC1CCN(c2cc(Oc3ccc(C(F)(F)F)cc3)ccn2)CC1 [Example 7, 1-(Pyridin-3-yl)-3-(1-(4-(4-(trifluoromethyl)phenoxy)pyridin-2-yl)piperidin-4-yl)urea]	25 to 50%		
O=C(Nc1cccnc1)NC1CCN(c2nccc(C(F)(F)F)c2Cl)CC1 [Example 8, 1-(1-(3-Chloro-4-(trifluoro-methyl)pyridin-2-yl)piperidin-4-yl)-3-(pyridin-3-yl)urea]			inhibition at 10 µM: 50 to 75%
Cc1c(Oc2ccc(OC(F)(F)F)cc2)ccnc1N1CCC(NC(=O)Nc2cccnc2)CC1 [Example 9, 1-(1-(3-Methyl-4-(4-(trifluoro-methoxy)phenoxy)pyridin-2-yl)piperidin-4-yl)-3-(pyridin-3-yl) urea]	≥ 75%	6.00 to 7.00	
O=C(Nc1cccnc1)NC1CCN(c2ccc(Cl)cn2)CC1 [Example 11, 1-(1-(5-Chloropyridin-2-yl)piperidin-4-yl)-3-(pyridin-3-yl) urea]			inhibition at 50 µM: ≥ 75%
N#Cc1ccnc(N2CCC(NC(=O)Nc3cccnc3)CC2)c1 [Example 12, 1-(1-(4-Cyanopyridin-2-yl)piperidin-4-yl)-3-(pyridin-3-yl) urea]			inhibition at 50 µM: 25 to 50%
O=C(Nc1cccnc1)NC1CCN(c2nccc(Oc3ccccc3OC(F)(F)F)c2Cl)CC1 [Example 13, 1-(1-(3-Chloro-4-(2-(trifluoro-methoxy)phenoxy)pyridin-2-yl)piperidin-4-yl)-3-(pyridin-3-yl)urea]	25 to 50%		
COc1ccnc(N2CCC(NC(=O)Nc3cccnc3)CC2)c1 [Example 18]	0 to 25%		
O=C(Nc1cccnc1)NC1CCN(c2cc(OCC3CC3)ccn2)CC1 [Example 19]			inhibition at 50 µM: 50 to 75%
N#Cc1c(Oc2ccc(C(F)(F)F)cc2)ccnc1N1CCC(NC(=O)Nc2cccnc2)CC1 [Example 20, 1-(1-(3-Cyano-4-(4-(trifluoro-methyl)phenoxy)pyridin-2-yl)piperidin-4-yl)-3-(pyridin-3-yl) urea]	50 to 75%		
O=C(Nc1cccnc1)NC1CCN(c2nccc(OC3CCOCC3)c2Cl)CC1 [Example 21, 1-(1-(3-Chloro-4-((tetrahydro-2H-pyran-4-yl)oxy)pyridin-2-yl)piperidin-4-yl)-3-(pyridin-3-yl)urea]	0 to 25%		
CC(C)OC(=O)N1CCC(Oc2ccnc(N3CCC(NC(=O)Nc4cccnc4)CC3)c2)CC1 [Example 22, Isopropyl 4-((2-(4-(3-(pyridin-3-yl)ureido)piperidin-1-yl)pyridin-4-yl)oxy) piperidine-1-carboxylate]			inhibition at 50 µM: 25 to 50%
C#Cc1ccc(N2CCC(NC(=O)Nc3cccnc3)CC2)nc1 [Example 25, 1-(1-(5-Ethynyl-pyridin-2-yl)piperidin-4-yl)-3-(pyridin-3-yl)urea]	0 to 25%		
O=C(Nc1cccnc1)NC1CCN(c2nccc(OCc3ccc(OC(F)(F)F)cc3)c2Cl)CC1 [Example 28, 1-(1-(3-Chloro-4-((4-(trifluoro-methoxy)benzyl)oxy)pyridin-2-yl)piperidin-4-yl)-3-(pyridin-3-yl)urea]	25 to 50%		
O=C(Nc1cccnc1)NC1CCN(c2nccc(OCc3cccc(OC(F)(F)F)c3)c2Cl)CC1 [Example 29, 1-(1-(3-Chloro-4-((3-(trifluoro-methoxy)benzyl)oxy)pyridin-2-yl)piperidin-4-yl)-3-(pyridin-3-yl)urea]	25 to 50%		

Further lines, with some results ahead:

inhibition at 1 µM	pIC50	SMILES	further results
≥ 75%	6.00 to 7.00	O=C(Nc1cccnc1)NC1CCN(c2nccc(Oc3ccc(Cl)c(OC(F)(F)F)c3)c2Cl)CC1 [Example 2, 1-(1-(3-Chloro-4-(4-chloro-3-(trifluoromethoxy)phenoxy)pyridin-2-yl)piperidin-4-yl)-3-(pyridin-3-yl)urea]	
25 to 50%		O=C(Nc1cccnc1)NC1CCN(c2nccc(Oc3ccc(F)c(OC(F)(F)F)c3)c2Cl)CC1 [Example 5, 1-(1-(3-Chloro-4-(4-fluoro-3-(trifluoromethoxy)phenoxy)pyridin-2-yl)piperidin-4-yl)-3-(pyridin-3-yl)urea]	
≥ 75%	≥ 7.00	O=C(Nc1cccnc1)NC1CCN(c2nccc(Oc3ccc(OC(F)(F)F)cc3)c2Cl)CC1 [Example 10, 1-(1-(3-Chloro-4-(4-(trifluoro-methoxy)phenoxy)pyridin-2-yl)pipcridin-4-yl)-3-(pyridin-3-yl) urea]	
≥ 75%	6.00 to 7.00	O=C(Nc1cccnc1)NC1CCN(c2nccc(Oc3ccc(OC(F)(F)F)c(F)c3)c2Cl)CC1 [Example 14, 1-(1-(3-Chloro-4-(3-fluoro-4-(trifluoro-methoxy)phenoxy)pyridin-2-yl)piperidin-4-yl)-3-(pyridin-3-yl)urea]	
≥ 75%	6.00 to 7.00	O=C(Nc1cccnc1)NC1CCN(c2nccc(Oc3ccc(OC(F)(F)F)c(Cl)c3)c2Cl)CC1 [Example 15, 1-(1-(3-Chloro-4-(3-chloro-4-(trifluoro-methoxy)phenoxy)pyridin-2-yl)piperidin-4-yl)-3-(pyridin-3-yl)urea]	
≥ 75%	6.00 to 7.00	Cc1cc(OC(F)(F)F)ccc1Oc1ccnc(N2CCC(NC(=O)Nc3cccnc3)CC2)c1Cl [Example 16, 1-(1-(3-Chloro-4-(2-methyl-4-(trifluoro-methoxy)phenoxy)pyridin-2-yl)piperidin-4-yl)-3-(pyridin-3-yl)urea]	
50 to 75%		O=C(Nc1cccnc1)NC1CCN(c2nccc(Oc3cccc(OC(F)(F)F)c3)c2Cl)CC1 [Example 17, 1-(1-(3-Chloro-4-(3-(trifluoro-methoxy)phenoxy)pyridin-2-yl)piperidin-4-yl)-3-(pyridin-3-yl)urea]	
≥ 75%	6.00 to 7.00	O=C(Nc1cccnc1)NC1CCN(c2ncccc2Oc2ccc(OC(F)(F)F)cc2Cl)CC1 [Example 23, 1-(1-(3-(2-Chloro-4-(trifluoro-methoxy)phenoxy)pyridin-2-yl)piperidin-4-yl)-3-(pyridin-3-yl) urea]	
25 to 50%		O=C(Nc1cccnc1)NC1CCN(c2nc(Oc3ccc(OC(F)(F)F)cc3Cl)ccc2Cl)CC1 [Example 24, 1-(1-(3-Chloro-6-(2-chloro-4-(trifluoro-methoxy)phenoxy)pyridin-2-yl)piperidin-4-yl)-3-(pyridin-3-yl)urea]	
≥ 75%	6.00 to 7.00	O=C(Nc1cccnc1)NC1CCN(c2nccc(-c3cccc(OC(F)(F)F)c3)c2Cl)CC1 [Example 26, 1-(1-(3-Chloro-4-(3-(trifluoro-methoxy)phenyl)pyridin-2-yl)piperidin-4-yl)-3-(pyridin-3-yl)urea]	
≥ 75%	6.00 to 7.00	O=C(Nc1cccnc1)NC1CCN(c2nccc(-c3ccc(OC(F)(F)F)cc3)c2Cl)CC1 [Example 27, 1-(1-(3-Chloro-4-(4-(trifluoro-methoxy)phenyl)pyridin-2-yl)piperidin-4-yl)-3-(pyridin-3-yl)urea]	
